The values below come from ChEMBL document CHEMBL4613257, “Advanced Glycation End Product Inhibition by Alkaloids from Ocotea paranapiacabensis for the Prevention of Skin Aging” (2020).

What all share (type): functional
Experiment [1] in a line: Anti-glycation activity assessed as inhibition of AGE formation at 150 uM incubated for 3 days in presence of BSA and MGO by fluorescence based assay relative to control. Also on record: scale not given: the % may be the effect or the level left.
Experiment [2] concerns Zone of skin. Description: Anti-aging activity in reconstructed human skin assessed as dermis contraction at 150 uM by hematoxylin and eosin staining-based microscopic analysis (reference value: 57.4%).
The test system of experiment [3] is Zone of skin. Description: Anti-aging activity in reconstructed human skin assessed as dermis contraction at 10 mM by hematoxylin and eosin staining-based microscopic analysis (reference value: 57.4%).
Experiment [4] is described as follows: Anti-glycation activity assessed as inhibition of AGE formation at 10 mM incubated for 3 days in presence of BSA and MGO by fluorescence based assay relative to control. Also on record: scale not given: the % may be the effect or the level left.

As to `C[N+]1(C)C=Cc2cc(O)c(O)cc2C1Cc1ccc(O)cc1` (stereo not drawn), the Activity in experiment [1] came out at 83.3%.
On to `CN1CCc2cc(O)c(O)cc2C1Cc1ccc(O)cc1` (stereo not drawn), for which the values for the Activity (in the experiment on Zone of skin [2]; in experiment [1]) were 4.2% and 98.2%, respectively.
For `N=C(N)NN` [PIMAGEDINE], the Activity with Zone of skin [3] turned out to be 49.7%; in experiment [4], 92.2%.
Take `C[N+]1(C)CCc2cc(O)c(O)cc2C1Cc1ccc(O)cc1` (stereo not drawn): the Activity in the experiment with Zone of skin [2] is 8.7%; in experiment [1] it was 61.5 to 63%.
For the molecule `COc1cc2c(cc1O)C(Cc1ccc(O)cc1)[N+](C)(C)CC2` (stereo not drawn), the Activity in experiment [1] came to 26.1%.
